Source: patent US11173120B2, “Stable formulations of lipids and liposomes” (BioNTech RNA Pharmaceuticals GmbH, priority 2014, dated 2021)

Experiment: Stability of DOPE in DOTMA/DOPE liposomes as a function of pH (HPLC lipid recovery, 37° C.)
Type: physicochemical
Conditions: under all conditions (pH 4-7), up to 6 weeks
Method: The stability of DOPE in DOTMA/DOPE liposomes was investigated after adjusting the pH to different values between pH 7 and pH 4. For pH 7, 10 mM HEPES buffer was used. For all lower pH values, acetic acid buffers (all 10 mM) were used (see Table 1). R6 glass type I vials were filled with 2 mL of the liposomes dispersion and stored in a stability chamber at 37° C. pH values were measured by potentiometry using a WTW pH-meter inoLab pH 7310, Weilheim, Germany.
The lipid stability was tested at different time points up to 6 weeks after preparation of the liposomes by measuring the lipid concentration in the liposome preparation using a HPLC system (Agilent Technologies 1200 equipped with DAD and ELSD detectors, Santa Clara, Calif., USA).
Plotted is the normalized recovery of DOPE (in percent) from the DOTMA/DOPE liposomes. […] In contrast, at pH 5, already degradation with a recovery of only 80% of the initial value was observed.

CCCCCCCC/C=C\CCCCCCCCOCC(C[N+](C)(C)C)OCCCCCCCC/C=C\CCCCCCCC (stereo not shown) [DOTMA, 1,2-di-O-octadecenyl-3-trimethylammoniumpropane]
degradation of DOTMA in DOTMA/DOPE liposomes: no indication for degradation
